Measurements as given in publication PMC3445516 (PLoS ONE, 2012).
Read-outs that look alike come from different tables or passages of the source.

Assays:
Experiment in all cases: Ambit kinase profiling, competition binding
BTK = target: T1, BTK (Homo sapiens, UniProt Q06187); settings: for % Competition: 10 µM
T1 construct: purchased Ambit Biosciences (KINOMEscan)
Protocol: (§1) Also included in the kinase profile are four isoforms of PKC (δ, ε, η, θ) and eight isoforms of CAMKs (CAMKIα, δ, γ; CAMKIIα, β, δ, γ; CAMK4).
(§2) The global kinase profiling experiment was performed by Ambit Biosciences.

CDK2 = target: T2, CDK2 (Homo sapiens, UniProt P24941); settings: for % Competition: 10 µM
T2 construct: purchased Ambit Biosciences (KINOMEscan)
Protocol: as §1, §2

EPHA1 = target: T3, EPHA1 (Homo sapiens, UniProt P21709)
T3 construct: purchased Ambit Biosciences (KINOMEscan)
T3 sequence (P21709 26-976): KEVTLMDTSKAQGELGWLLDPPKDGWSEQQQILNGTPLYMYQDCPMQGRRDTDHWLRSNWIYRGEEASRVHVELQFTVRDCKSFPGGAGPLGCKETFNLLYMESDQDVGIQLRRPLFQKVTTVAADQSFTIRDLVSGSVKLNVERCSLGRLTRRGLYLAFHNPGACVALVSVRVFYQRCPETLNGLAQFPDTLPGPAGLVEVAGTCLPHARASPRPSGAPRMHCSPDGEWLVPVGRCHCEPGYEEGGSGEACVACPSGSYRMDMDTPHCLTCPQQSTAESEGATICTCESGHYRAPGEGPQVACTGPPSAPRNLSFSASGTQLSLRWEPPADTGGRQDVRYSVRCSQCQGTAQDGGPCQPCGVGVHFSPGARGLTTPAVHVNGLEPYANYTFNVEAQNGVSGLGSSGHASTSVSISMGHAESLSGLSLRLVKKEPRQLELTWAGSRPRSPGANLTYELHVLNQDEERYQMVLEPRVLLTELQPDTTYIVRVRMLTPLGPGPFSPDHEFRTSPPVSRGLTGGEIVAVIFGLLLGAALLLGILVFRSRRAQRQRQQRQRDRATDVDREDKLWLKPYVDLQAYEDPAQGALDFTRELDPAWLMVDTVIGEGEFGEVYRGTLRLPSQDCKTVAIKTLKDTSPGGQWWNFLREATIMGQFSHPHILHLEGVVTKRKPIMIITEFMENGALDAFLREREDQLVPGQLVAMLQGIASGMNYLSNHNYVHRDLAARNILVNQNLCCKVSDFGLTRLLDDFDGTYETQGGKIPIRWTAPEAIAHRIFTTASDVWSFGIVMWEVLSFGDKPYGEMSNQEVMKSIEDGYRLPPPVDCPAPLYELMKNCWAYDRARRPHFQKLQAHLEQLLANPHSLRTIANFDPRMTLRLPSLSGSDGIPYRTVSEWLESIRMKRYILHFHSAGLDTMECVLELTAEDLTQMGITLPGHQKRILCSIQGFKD
Protocol: as §1, §2

EPHA8 = target: T4, EPHA8 (Homo sapiens, UniProt P29322)
T4 construct: purchased Ambit Biosciences (KINOMEscan)
T4 sequence (P29322 28-1005): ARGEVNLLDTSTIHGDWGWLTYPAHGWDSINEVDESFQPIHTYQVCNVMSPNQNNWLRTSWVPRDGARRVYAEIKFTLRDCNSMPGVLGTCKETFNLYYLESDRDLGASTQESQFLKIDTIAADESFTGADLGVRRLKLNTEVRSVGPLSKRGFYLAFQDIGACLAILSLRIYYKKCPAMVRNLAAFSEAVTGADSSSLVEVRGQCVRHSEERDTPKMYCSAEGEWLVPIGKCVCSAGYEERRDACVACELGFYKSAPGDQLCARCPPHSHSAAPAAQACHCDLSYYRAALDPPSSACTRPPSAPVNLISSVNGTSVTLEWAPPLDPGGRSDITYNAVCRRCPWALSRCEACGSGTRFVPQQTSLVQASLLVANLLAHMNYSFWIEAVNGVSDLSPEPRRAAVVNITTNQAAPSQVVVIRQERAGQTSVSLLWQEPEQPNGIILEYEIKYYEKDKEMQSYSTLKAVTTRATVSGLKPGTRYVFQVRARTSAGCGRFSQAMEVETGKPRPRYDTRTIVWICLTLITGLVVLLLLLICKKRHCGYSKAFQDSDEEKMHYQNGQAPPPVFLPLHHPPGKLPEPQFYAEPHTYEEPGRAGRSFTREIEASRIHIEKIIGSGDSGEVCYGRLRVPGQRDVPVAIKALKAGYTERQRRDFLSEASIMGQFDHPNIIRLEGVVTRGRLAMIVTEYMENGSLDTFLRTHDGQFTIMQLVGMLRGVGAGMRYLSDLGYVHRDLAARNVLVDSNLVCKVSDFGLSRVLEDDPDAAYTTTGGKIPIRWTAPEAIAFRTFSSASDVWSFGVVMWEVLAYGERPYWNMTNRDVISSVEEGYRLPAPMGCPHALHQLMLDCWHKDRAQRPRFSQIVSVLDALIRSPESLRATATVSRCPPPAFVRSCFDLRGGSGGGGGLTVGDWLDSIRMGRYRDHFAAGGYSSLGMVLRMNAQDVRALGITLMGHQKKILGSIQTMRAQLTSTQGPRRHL
Protocol: as §1, §2

IRAK3 = target: T5, IRAK3 (Homo sapiens, UniProt Q9Y616)
T5 construct: purchased Ambit Biosciences (KINOMEscan)
T5 sequence (Q9Y616 1-596): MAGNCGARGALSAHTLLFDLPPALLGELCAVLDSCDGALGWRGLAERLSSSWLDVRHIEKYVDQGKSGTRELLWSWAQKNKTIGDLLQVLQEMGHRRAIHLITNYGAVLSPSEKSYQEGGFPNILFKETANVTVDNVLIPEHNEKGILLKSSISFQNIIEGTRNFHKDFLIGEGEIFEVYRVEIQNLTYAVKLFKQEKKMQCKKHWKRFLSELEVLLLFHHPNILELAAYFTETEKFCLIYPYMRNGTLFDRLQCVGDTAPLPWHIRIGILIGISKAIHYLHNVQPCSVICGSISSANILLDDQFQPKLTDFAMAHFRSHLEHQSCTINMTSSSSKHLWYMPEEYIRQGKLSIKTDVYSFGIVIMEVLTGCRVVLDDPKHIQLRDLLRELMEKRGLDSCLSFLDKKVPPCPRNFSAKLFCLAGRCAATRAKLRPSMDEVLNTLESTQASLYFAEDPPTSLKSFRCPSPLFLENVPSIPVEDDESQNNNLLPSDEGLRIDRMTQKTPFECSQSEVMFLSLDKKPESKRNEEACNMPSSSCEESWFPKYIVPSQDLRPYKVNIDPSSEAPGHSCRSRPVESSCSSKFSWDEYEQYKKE
Protocol: as §1, §2

MARK2 = target: T6, MARK2 (Homo sapiens, UniProt Q7KZI7)
T6 construct: purchased Ambit Biosciences (KINOMEscan)
Protocol: as §1, §2

T6 sequence (Q7KZI7 whole entry): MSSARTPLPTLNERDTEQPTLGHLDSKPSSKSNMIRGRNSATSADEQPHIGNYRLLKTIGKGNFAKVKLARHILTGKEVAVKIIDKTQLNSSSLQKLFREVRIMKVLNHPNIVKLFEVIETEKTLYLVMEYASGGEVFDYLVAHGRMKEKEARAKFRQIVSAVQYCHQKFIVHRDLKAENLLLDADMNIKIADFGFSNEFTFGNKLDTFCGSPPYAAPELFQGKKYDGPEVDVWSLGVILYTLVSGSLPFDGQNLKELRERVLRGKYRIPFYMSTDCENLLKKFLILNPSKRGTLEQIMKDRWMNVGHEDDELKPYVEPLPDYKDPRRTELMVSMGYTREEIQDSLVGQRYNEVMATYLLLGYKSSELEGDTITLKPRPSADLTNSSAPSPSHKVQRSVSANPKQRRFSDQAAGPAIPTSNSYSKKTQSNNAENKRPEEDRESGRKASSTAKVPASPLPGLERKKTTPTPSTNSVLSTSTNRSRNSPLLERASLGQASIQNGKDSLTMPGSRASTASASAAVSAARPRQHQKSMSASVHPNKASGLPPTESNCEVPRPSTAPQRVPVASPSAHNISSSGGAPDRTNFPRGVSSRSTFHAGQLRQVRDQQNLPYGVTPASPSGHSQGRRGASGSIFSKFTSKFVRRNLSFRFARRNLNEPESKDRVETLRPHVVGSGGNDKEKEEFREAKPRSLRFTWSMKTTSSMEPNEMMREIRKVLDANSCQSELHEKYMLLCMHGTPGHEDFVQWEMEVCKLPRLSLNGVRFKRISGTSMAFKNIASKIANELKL
T1 sequence (Q06187 whole entry): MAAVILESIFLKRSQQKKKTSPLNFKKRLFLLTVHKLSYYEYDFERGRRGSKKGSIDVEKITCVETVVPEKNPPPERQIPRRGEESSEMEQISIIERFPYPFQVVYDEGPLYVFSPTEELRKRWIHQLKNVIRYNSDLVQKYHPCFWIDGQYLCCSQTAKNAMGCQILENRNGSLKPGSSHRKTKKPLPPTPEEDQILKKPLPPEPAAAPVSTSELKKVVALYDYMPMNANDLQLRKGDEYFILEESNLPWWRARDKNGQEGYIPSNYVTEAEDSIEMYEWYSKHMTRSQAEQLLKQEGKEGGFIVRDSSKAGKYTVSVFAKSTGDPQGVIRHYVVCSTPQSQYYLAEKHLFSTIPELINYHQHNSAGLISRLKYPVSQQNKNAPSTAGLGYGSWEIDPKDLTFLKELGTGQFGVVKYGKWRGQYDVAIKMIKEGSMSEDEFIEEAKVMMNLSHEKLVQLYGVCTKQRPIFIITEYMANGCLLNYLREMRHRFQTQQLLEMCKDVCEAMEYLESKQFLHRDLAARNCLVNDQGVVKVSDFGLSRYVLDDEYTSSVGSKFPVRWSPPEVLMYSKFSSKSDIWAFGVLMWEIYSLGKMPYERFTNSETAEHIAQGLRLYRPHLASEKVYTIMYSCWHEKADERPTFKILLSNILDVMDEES

inhibition at 10 µM (EPHA1; EPHA1, 10 µM, read-out: % Competition) [%] | inhibition at 10 µM (EPHA8; EPHA8, 10 µM, read-out: % Competition) [%] | inhibition at 10 µM (IRAK3; IRAK3, 10 µM, read-out: % Competition) [%] | inhibition at 10 µM (MARK2; MARK2, 10 µM, read-out: % Competition) [%] | Percent Competition (BTK; compound concentration 10 uM) [%] | Percent Competition (CDK2; compound concentration 10 uM) [%] | inhibition at 10 µM (EPHA1; EPHA1, compound concentration 10 uM, read-out: Percent Competition) [%] | inhibition at 10 µM (EPHA8; EPHA8, compound concentration 10 uM, read-out: Percent Competition) [%] | inhibition at 10 µM (IRAK3; IRAK3, compound concentration 10 uM, read-out: Percent Competition) [%] | inhibition at 10 µM (MARK2; MARK2, compound concentration 10 uM, read-out: Percent Competition) [%] | Structure (SMILES) | % Competition (BTK) [%] | % Competition (CDK2) [%] | inhibition at 10 µM (EPHA1; read-out: % Competition) [%] | inhibition at 10 µM (EPHA8; read-out: % Competition) [%] | inhibition at 10 µM (IRAK3; read-out: % Competition) [%] | inhibition at 10 µM (MARK2; read-out: % Competition) [%]
81 | 71 | 75 | 77 |  |  |  |  |  |  | Fc1ccc(-c2c(-c3ccncc3)[nH]c3nccnc23)cc1 [Compound 122] | 91 | 93 |  |  |  | 
 |  |  |  |  |  |  |  |  |  | CC(O)CNc1cc(-c2[nH]c3cccnc3c2-c2ccc(F)cc2)ccn1 (stereo not drawn) [Compound 140] | <50 | <50 | < 50 | < 50 | < 50 | < 50
 |  |  |  | 91 | 93 | 81 | 71 | 75 | 77 | Fc1ccc(-c2c(-c3ccncc3)[nH]c3nccnc23)cc1 [RO1155697-000-005] |  |  |  |  |  | 
